According to patent US20210255167A1, “COMPOSITIONS AND METHODS FOR ASSESSING TOXICITY USING DYNAMIC BH3 PROFILING” (Dana-Farber Cancer Institute, Inc., priority 2015, published 2021):

Each compound was assayed on adult mouse hepatocytes.
Text: In some aspects, methods provided herein relate to determining the toxicity of an agent in a sample of cells. In some embodiments, the toxicity of the agent can be determined by determining a value for delta percent priming. As used herein, “delta percent priming” refers to the extent to which an agent shifts a cell closer to the threshold of apoptosis. In some embodiments, normalized values of MOMP (e.g., percent BH3 domain peptide-induced MOMP, or “% MOMP”) are used to determine a value for delta percent priming. In such embodiments, the value for delta percent priming can be calculated using the equation:
Delta Percent Priming=(% MOMPTEST)−(% MOMPCONTROL),
where “% MOMPTEST” represents the value for percent BH3 domain peptide-induced MOMP determined in a test aliquot (cells contacted with the agent); and “% MOMPCONTROL” represents the value for percent BH3 domain peptide-induced MOMP determined in a control aliquot (cells not contacted with the agent).
Next, various drug compounds were tested to assess the extent of drug-induced increased cell death sensitivity in adult mouse hepatocytes. Freshly isolated adult mouse hepatocytes were treated with different drugs for 20 hours, and the loss of cytochrome c induced by a single concentration of the synthetic Bim BH3 peptide was subsequently assessed by immunofluorescence (FIGS. 5A-D). Increase in cell death sensitivity is indicated by loss of cytochrome c, which is quantified as an increase in apoptotic sensitivity (delta priming, FIG. 5E).
For `CC1(C)CCC(c2ccc(Cl)cc2)=C(CN2CCN(c3ccc(C(=O)NS(=O)(=O)c4ccc(N[C@H](CCN5CCOCC5)CSc5ccccc5)c(S(=O)(=O)C(F)(F)F)c4)cc3)CC2)C1` [Navitoclax], the “apoptotic sensitivity (delta priming)” value was “increase apoptotic sensitivity”.
In the case of `C=CCNC1=C2C[C@@H](C)C[C@H](OC)[C@H](O)[C@@H](C)/C=C(\C)[C@H](OC(N)=O)[C@@H](OC)/C=C\C=C(/C)C(=O)NC(=CC1=O)C2=O` [tanespimycin], the “apoptotic sensitivity (delta priming)” value is reported as “increase apoptotic sensitivity”.
With `COc1cccc2c1C(=O)c1c(O)c3c(c(O)c1C2=O)C[C@@](O)(C(=O)CO)C[C@@H]3O[C@H]1C[C@H](N)[C@H](O)[C@H](C)O1` [doxorubicin] the “apoptotic sensitivity (delta priming)” value was “increase apoptotic sensitivity”.
